For one data set, the system named is adjuvant arthritis. The data set can be described thus: Anti-adjuvant-arthritic activity. As to conditions: 10 mg/kg orally once a day for 14 days; volume of left hind limb (not injected); day of reading not given. It is filed as in vivo, SD rats. The procedure: Anti-Adjuvant-Arthritic Activity
Male SD origin male-rats (6 weeks old, CLEA Japan, 1 group: n=7) were used. The adjuvant arthritis method was conducted according to the method of Newbould B. B. et. al., (Brit. J. Pharmacol. Chemother., vol. 21, p. 127, 1963). Complete Freund's adjuvant (a suspension of killed tubercule bacillus in liquid paraffin at a concentration of 0.5%, 0.05 mL) was injected into the right hind limb footpad intracutaneouly to induce multiple arthritis. Samples were administered orally (10 mg/kg, b.w.), once a day for 14 days from the day before the injection day 0 to day 13. Volume of the left hind limb (not injected) was determined by the foot-volume measurement apparatus manufactured by Ugo Basile, on the day just before the adjuvant shot (Day 0), Day 10 and Day 14, and repression rate (%) was calculated comparing the values between the sample group and the control group.

Another data set has as its system yeast-induced pyrexia. The data set can be described thus: Antipyretic activity in yeast-induced pyrexia. Type of data set: in vivo, SD rats. The following applies: 10 mg/kg orally; maximum difference in body temperature vs control over 6 hours. As to the method:
Antipyretic Activity in Yeast-Induced Pyrexia Antipyretic activity was determined using male SD origin male-rats (7 weeks old, CLEA Japan, 1 group: n=6), according to the method of winter et. al. (J. Pharmacol. Exp. Ther., vol. 138, p. 405, 1963). Before 16 hours from measurement of body temperature, a suspension of 15% yeast in saline was injected subcutaneously (10 mL/kg, b.w.) into the rats to induce fever, and simultaneously supply of food was terminated while water was made available all the time. Each of the rats was raised separately. After 16 hours from the yeast shot, a thermistor terminal was inserted at an about 4 cm depth into rectum every hour, and the body temperatures after 30 seconds were recorded. After 18 hours, rats developing fevers consistently were selected, and a sample was orally administered to the rats (5 mL/kg, b.w.), while to the control, only the solvent was administered. After the administration, body temperatures were measured every hour for a period of 6 hours, and the maximum difference in body temperature between the rats in the sample group and in the control group were determined as Δ (° C.).

Data set [1] concerns acetic acid induced rising and stretching. The data set can be described thus: Analgesic activity, acetic acid rising method. It is filed as in vivo, ICR-mice. The following applies: po, 20 min; 10 mg/kg orally, 30 minutes before 0.6% acetic acid i.p.; number of rising and stretching in 20 minutes; read-out: Repression rate (%) Dosage 10 mg/kg. As to the method: Analgesic Activity Acetic Acid Rising Method Male ICR-mice (5 weeks old, CLEA Japan) were used (1 group, n=10), and a sample was orally administered (0.2 mL/10 g, b.w.). After 30 minutes, 0.6% acetic acid solution was injected to mice intraperitoneally (0.1 mL/10 g, b.w.), and the mice were immediately transferred into an observation cage made of a transparent acrylic resin. The number of rising and stretching during the following period of 20 minutes was counted. The repression rate (%) was calculated by comparing the average numbers between the sample groups and the control groups.

Data set [2] has as its system carrageenin edema of right hind limb plantar. The data set can be described thus: Anti-inflammatory activity, carrageenin edema method. As to conditions: po, 10 mg/kg orally. It is filed as in vivo, SD-rats. As to the method:
Anti-Inflammatory Activity
Male SD-rats (6 weeks old, CLEA Japan) were used (1 group, n=6). The Carrageenin edema method was performed according to the method of Winter et. al., (Proc. Soc. Exp. Biol. Med., vol. 111, p. 544-547, 1962). After the volume of right hind limb plantar of the rat was determined, a sample was orally administered (1.0 mL, b.w.), and immediately water was orally administered in an amount of 5 mL/rat. Meanwhile, only the solvent of the sample was orally administered to rats in control. After 1 hour, a solution of 1% carrageenin in saline (0.05 mL) was injected into the right hind limb plantar subcutaneously to induce edema. After 2 and 3 hours later from the injection, volumes of the right hind limb plantar were determined. The repression rate (%) of the sample was calculated by comparing the difference of the volumes of the plantar before the carrageenin shot and 2 and 3 hours after the shot between the sample groups and the control groups.

The subject of data set [3] is mucosa of small intestine. Put plainly: Disorder of mucosa of small intestine. The following applies: 100 mg/kg orally, freely fed rats, 6 hours after dosing. It is filed as in vivo, SD rats. The procedure:
Disorder of Mucosa of Small Intestine Male SD origin male-rats (7 weeks old, CLEA Japan) were used. To the rats freely fed, samples were administered orally (5 mL/kg, b.w.). After 5.5 hours from the administration, Evan's Blue (0.5% Evan's Blue/saline) was injected (1 mL/rat) intravenously under no anesthesia. After 30 minutes from the shot, the intestine was removed by celiotomy and the area thereof facing mesentery was cut open. After removal of intestinal content, the spots in the intestine dyed by Evan's Blue were measured under a stereomicroscope, and the total length (mm) of the spots was determined by a counter and recorded.

Another data set has as its target T1, human COX-1 (Homo sapiens, UniProt P23219).
T1 construct: made in house; host or cells: Sf-21 insect cells (recombinant baculovirus BAC-COX1, pFASTBAC1); microsome fraction
Put plainly: Determination of COX-1 inhibitory activity (microsome fraction, chemiluminescence). It is filed as biochemical. The following applies: microsome fraction 40 μg, arachidonic acid, 37° C. 25 minutes preincubation; read-out: Repression rate IC50 (μM) COX-1. The procedure: A 1.8 kb DNA fragment containing human COX-1 cDNA (FASEB J., vol. 5 (9), p. 2304-2312 (1991)) prepared by the PCR method was inserted into plasmid pFASTBAC1 (CIBCOBRL) to obtain a plasmid pFBCOX1.
Using the plasmid pFBCOX1 and BAC-TO-BAC Baculovirus Expression System (GIBCOBRL), a virus stock BAC-COX1 of the recombinant baculovirus was prepared.
Sf-21 cells were inoculated in 125 mL of Sf-900 II SFM medium (GIBCOBRL) at a concentration of 1×10^6 cells/mL, and the medium was incubated at 27° C. for 24 hours. 0.75 mL of the virus stock BAC-COX1 of the recombinant baculovirus was added thereto, and the mixture was incubated further for 72 hours. The cells were separated from the medium by centrifugation (3000 rpm, 10 min), and washed with PBS twice. The cells were suspended in 10 mL of a Lysis buffer (0.1M Tris-HCl (pH 7.4), 5 mM EDTA), and were treated with a homogenizer (POLYTRON) three times at 20000 rpm for 20 seconds so that the cells were crushed. The supernatant obtained after centrifugation (2000 rpm, 10 minutes) was further centrifuged (40000 rpm, 45 minutes) to give a precipitate, which was resuspended in a Lysis buffer (0.1M Tris-HCl (pH 7.4), 5 mM EDTA), and the suspension was stored at −80° C.
(§1) Determination of COX-1 and COX-2 Inhibitory Activities
(§2) To a mixture of 20 μL of a reaction buffer previously concentrated 10 times (1M Tris-HCl (pH8.0), 50 mM EDTA, 1.0% Tween 20, 50 mM luminol, 100 μM hematin), 20 μL of the microsome fractions (COX-1: 40 μg, COX-2: 20 μg), and 55 μL of distilled water, a sample compound dissolved in DMF (5 μL) was added, and the mixture was left at 37° C. for 25 minutes. The reaction was started by the addition of 20 μM arachidonic acid (100 μL), and chemiluminescence amount during the 10-second period after the addition of arachidonic acid was determined by the use of Lumistar (BMG Lab technologies, GmbH). The inhibition rate was calculated, regarding that the enzyme activity when DMF ([…]) was added was 100%, and the enzyme activity when 4 mM flurbiprofen (5 μL) was added was 0%.

A further data set concerns the target T2, human COX-2 (Homo sapiens, UniProt P35354).
T2 construct: made in house; host or cells: Sf-21 insect cells (recombinant baculovirus BAC-COX2, pFASTBAC1); microsome fraction
T2 sequence (P35354 18-604): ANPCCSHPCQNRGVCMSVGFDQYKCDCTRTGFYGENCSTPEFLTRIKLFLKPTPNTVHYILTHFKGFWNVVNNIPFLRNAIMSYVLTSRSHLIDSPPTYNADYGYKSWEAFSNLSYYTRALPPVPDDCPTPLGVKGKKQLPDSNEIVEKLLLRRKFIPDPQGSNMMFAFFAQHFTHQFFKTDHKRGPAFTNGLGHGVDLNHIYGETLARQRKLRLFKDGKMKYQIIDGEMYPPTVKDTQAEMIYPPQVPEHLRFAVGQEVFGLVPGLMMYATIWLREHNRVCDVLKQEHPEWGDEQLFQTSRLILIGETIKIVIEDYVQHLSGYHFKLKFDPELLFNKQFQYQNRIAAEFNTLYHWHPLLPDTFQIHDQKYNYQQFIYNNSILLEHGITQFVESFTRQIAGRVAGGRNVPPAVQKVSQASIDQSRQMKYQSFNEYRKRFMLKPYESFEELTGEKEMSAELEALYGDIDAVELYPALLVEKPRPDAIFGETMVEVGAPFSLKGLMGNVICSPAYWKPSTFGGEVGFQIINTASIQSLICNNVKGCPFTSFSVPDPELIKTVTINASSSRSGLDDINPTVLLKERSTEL
The data set can be described thus: Determination of COX-2 inhibitory activity (microsome fraction, chemiluminescence). It is filed as biochemical. As to conditions: microsome fraction 20 μg, arachidonic acid, 37° C. 25 minutes preincubation; read-out: Repression rate IC50 (μM) COX-2. The procedure:
A 1.8 kb DNA fragment containing human COX-2 cDNA (Proc. Natl. Acad. Sci. U.S.A., vol. 89 (16), p. 7384-7388 (1992)) prepared by the PCR method was inserted into plasmid pFASTBAC1 (CIBCOBRAL) to obtain a plasmid pFBCOX2.
Using the plasmid pFBCOX2 and BAC-TO-BAC Baculovirus Expression System (GIBCOBRAL), a virus stock BAC-COX2 of the recombinant baculovirus was prepared.
Sf-21 cells were inoculated in 125 mL of LSf-900 II SFM medium (GIBCOBRAL) at a concentration of 1×10^6 cells/mL, and the medium was incubated at 27° C. for 24 hours. 0.75 mL of the virus stock BAC-COX2 of the recombinant baculovirus was added thereto, and was incubated further for 72 hours. The cells were separated from the medium by centrifugation (3000 rpm, 10 min), and washed with PBS twice. The cells were suspended in 10 mL of a Lysis buffer (0.1M Tris-HCl (pH 7.4), 5 mM EDTA), and were treated with a homogenizer (POLYTRON), three times at 20000 rpm for 20 seconds so that the cells were crushed. The supernatant thus obtained after centrifugation (2000 rpm, 10 minutes) was further centrifuged (40000 rpm, 45 minutes) to obtain a precipitate, which was resuspended in a Lysis buffer (0.1M Tris-HCl (pH 7.4), 5 mM EDTA), and the suspension was stored at −80° C.
as §1, §2

[4] abbreviates: 2 hr after carrageenin injection, read-out: Repression rate (%) Dosage 10 mg/kg 2 hr later.
Where [5] appears, read: 3 hr after carrageenin injection, read-out: Repression rate (%) Dosage 10 mg/kg 3 hr later.

Where two headings read alike, the source gives them in different places. Marks after values point to notes of the source that are not given here.

The source of these data is patent US6949648B2, “Condensed pyrazole derivatives, process for producing the same and use thereof” (Takeda Pharmaceutical Company Limited, priority 2000, dated 2005).

T1 sequence (P23219 24-599): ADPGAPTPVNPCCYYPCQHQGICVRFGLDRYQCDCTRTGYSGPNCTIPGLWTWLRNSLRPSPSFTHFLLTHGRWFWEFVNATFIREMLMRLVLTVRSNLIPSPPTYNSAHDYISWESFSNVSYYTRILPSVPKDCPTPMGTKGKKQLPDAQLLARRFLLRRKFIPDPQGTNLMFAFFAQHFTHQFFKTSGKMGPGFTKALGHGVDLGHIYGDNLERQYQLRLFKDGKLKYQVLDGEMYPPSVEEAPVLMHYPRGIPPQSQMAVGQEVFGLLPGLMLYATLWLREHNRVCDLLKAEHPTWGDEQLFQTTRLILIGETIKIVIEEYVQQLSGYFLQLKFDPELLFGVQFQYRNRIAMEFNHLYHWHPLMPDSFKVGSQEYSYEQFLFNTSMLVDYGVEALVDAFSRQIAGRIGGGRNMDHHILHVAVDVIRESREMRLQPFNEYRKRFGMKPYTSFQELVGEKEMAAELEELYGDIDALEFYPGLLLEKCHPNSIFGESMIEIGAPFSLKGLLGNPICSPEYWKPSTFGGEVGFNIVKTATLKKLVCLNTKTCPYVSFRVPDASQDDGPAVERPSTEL

By melting point is commonly meant the temperature of the solid-liquid transition. In turn, `Cc1nn(-c2ccccn2)c2[nH]c3ccc(F)cc3c(=O)c12` [Example 2-81, 6-Fluoro-3-methyl-1-(2-pyridinyl)-1,9-dihydro-4H-pyrazolo[3,4-b]quinolin-4-one] had a melting point of 278 to 280 °C. Besides, the “Repression rate (%) Dosage 10 mg/kg” value with adjuvant arthritis stood at 56%.

Consider `O=c1c2cc(Cl)ccc2[nH]c2c1cnn2-c1ccccn1` [Example 2-161, 6-Chloro-1-(2-pyridinyl)-1,9-dihydro-4H-pyrazolo[3,4-b]quinolin-4-one], for which the melting point was in the range of 297 to 298 °C. In addition, the “Δ (° C.) Dosage 10 mg/kg” value in the data set on yeast-induced pyrexia was 1.4** ° C. In data set [1], the inhibition in vivo at 10 mg/kg amounted to 74%. In addition, in data set [2] (setting [4]), the inhibition in vivo at 10 mg/kg is 33%. Moreover, the inhibition in vivo at 10 mg/kg in data set [2] (setting [5]) is 33%.

With `Cc1nn(-c2ccccn2)c2[nH]c3ccc(C(F)(F)F)cc3c(=O)c12` [Example 2-40, 3-Methyl-1-(2-pyridinyl)-6-(trifluoromethyl)-l,9-dihydro-4H-pyrazolo[3,4-b]quinolin-4-one], the “Total length of dyed spots (mm)” value in data set [3] is 0 (100 mg/kg) mm.

For `Cc1nn(-c2ccccn2)c2[nH]c3cc(F)ccc3c(=O)c12` [Example 2-83, 7-Fluoro-3-methyl-1-(2-pyridinyl)-1,9-dihydro-4H-pyrazolo[3,4-b]quinolin-4-one], the melting point fell in the range of 260 to 261 °C. Further, the “Repression rate (%) Dosage 10 mg/kg” value in the data set on adjuvant arthritis was 65* %.

The IC50 is the concentration at which inhibition is half-maximal. The molecule `COC(=O)c1cccc2[nH]c3c(c(C)nn3-c3ccccn3)c(=O)c12` [Example 2-61, Methyl 3-methyl-4-oxo-1-(2-pyridinyl)-4,9-dihydro-1H-pyrazolo[3,4-b]quinoline-5-carboxylate] registered a melting point of 241 to 244 °C. For the same molecule, on human COX-1, the IC50 came to 2 µM. The inhibition in vivo at 10 mg/kg in data set [1] was 75%. Besides, the concentration for half-maximal inhibition (IC50) on human COX-2 was found to be 44 µM. The inhibition in vivo at 10 mg/kg in data set [2] (setting [4]) is 36%. For the same molecule, the inhibition in vivo at 10 mg/kg in data set [2] (setting [5]) is 28%.

For `Cc1nn(-c2ccccn2)c2[nH]c3ccccc3c(=O)c12` [Example 2-12, 3-Methyl-1-(2-pyridinyl)-1,9-dihydro-4H-pyrazolo[3,4-b]quinolin-4-one], in data set [3], the “Total length of dyed spots (mm)” value was 0 (100 mg/kg) mm.

On to `Cc1nn(-c2ccccn2)c2nc3ccccc3c(OC(C)C)c12` [Example 2-18, 4-Isopropoxy-3-methyl-1-(2-pyridinyl)-1H-pyrazolo[3,4-b]quinoline], for which the melting point was 93 to 96 °C. In the data set with yeast-induced pyrexia, the “Δ (° C.) Dosage 10 mg/kg” value is 1.7** ° C. Further, in the data set on adjuvant arthritis, the “Repression rate (%) Dosage 10 mg/kg” value came to 47%.
